In the experiment the test system is HMOX1. Put plainly: HMOX1 Protein Assay (immunostaining of HO-1 in NHLF cells, GE InCell 1000). The format is cell-based. The following applies: Homo sapiens, fold change above DMSO treated cells, 16 h; for fold induction at 5 µM: 5 μM compound; for fold induction at 3 µM: 3 μM compound (asterisk). The procedure: Cell Culture. Normal Human Fibroblast (NHLF), were obtained from Lonza. Cultures of cells were maintained in Fibroblast Growth Medium (FGM-2) medium supplemented with 2% fetal bovine serum (FBS), Fibroblast Growth Factor (hFGF-B) 0.5 mL, Insulin 0.5 mL, gentamicin/amphotericin-B 0.5 mL at 37° C. in a humidified atmosphere of 5% CO2. Cells were grown to 80% confluence before treating.
HMOX1 Protein Assay. NHLF cells were grown to 80% confluency and harvested by washing once with HEPES and then trypsinized. Equal numbers (2×10^3 cells per well) of NHLF cells were plated in 384 well optilux tissue culture (BD) plates. Cells were incubated overnight in FGM-2 medium prior to exposure to compound. Cells were treated with either vehicle (DMSO) or compound (dissolved in vehicle) for 16 h. Cells were washed 2× with 1×PBS and fixed with 4% Paraformaldyhyde for 15 min. The fixed cells were then permeabalized with 0.1% Triton X-100 and blocked with 5% BSA in 1×PBS 0.05% Tween-20 for 15 min. HO-1 antibody (abcam) was used for immunostaining at 1:300 dilution in 1% BSA in 1×PBS for 1 hour. Cells were washed 2× with 1×PBS and secondary antibody goat anti-mouse Alexa 488 1:400 dilution (Invitrogen); Hoechst 1:2000 (Invitrogen) in 1% BSA in 1×PBS for 1 hour. Plate was washed 5× with 1×PBS and read at Hoechst Ex.360 […]; Alexa 488 Ex.480 Em. 535 using GE InCell 1000. Results analyzed using GE InCell Analyzer software. Heme oxygenase data represents the fold change above DMSO treated cells.
In general, the fold induction data are reported for 5 μM concentration (i.e., μ-moles of compound to total volume, where the solvent is about 99.2% media and 0.8% DMSO). In some instances, the reported data are for 3 μM concentration, which are indicated by an asterisk (*).

Counter-ions that a name gives are not always drawn.

Compound `CN(C)C(=O)[C@@H]1CCCN1C(=O)CNC(=O)c1ccc2c(c1)nc(Nc1nc3ccc(Cl)cc3s1)n2C` [Example 419, 2-(6-Chloro-benzothiazol-2-ylamino)-1-methyl-1H-benzoimidazole-5-carboxylic acid [2-((S)-2-dimethylcarbamoyl-pyrrolidin-1-yl)-2-oxo-ethyl]-amide] came in with a fold induction at 5 µM of 28.

`Cn1c(Nc2nc3ccc(Cl)cc3s2)nc2cc(C(=O)NCC(C)(C)CO)ccc21` [Example 218, 2-(6-Chloro-benzothiazol-2-ylamino)-1-methyl-1H-benzoimidazole-5-carboxylic acid (3-hydroxy-2,2-dimethyl-propyl)-amide] had a fold induction at 5 µM of 39.2. As to `Cn1c(Nc2nc3ccc(Cl)cc3s2)nc2cc(C(=O)NCCCN)ccc21` [Example 345, 2-(6-Chloro-benzothiazol-2-ylamino)-1-methyl-1H-benzoimidazole-5-carboxylic acid (3-amino-propyl)-amide hydrochloride], the fold induction at 3 µM is 26.4. `CCn1c(Nc2nc3ccc(Cl)cc3s2)nc2cc(C(=O)NCCOC)ccc21` [Example 177, 2-(6-Chloro-benzothiazol-2-ylamino)-1-ethyl-1H-benzoimidazole-5-carboxylic acid (2-methoxy-ethyl)-amide] registered a fold induction at 5 µM of 30.3.

In turn, `CC(O)CCNC(=O)c1ccc2c(c1)nc(Nc1nc3ccc(Cl)cc3s1)n2C` (stereo not shown) [Example 215, 2-(6-Chloro-benzothiazol-2-ylamino)-1-methyl-1H-benzoimidazole-5-carboxylic acid (3-hydroxy-butyl)-amide] came in with a fold induction at 3 µM of 16.

In turn, `CC(=O)NCCNC(=O)c1ccc2c(c1)nc(Nc1nc3ccc(OC(F)(F)F)cc3s1)n2C` [Example 100, 1-Methyl-2-(6-trifluoromethoxy-benzothiazol-2-ylamino)-1H-benzoimidazole-5-carboxylic acid (2-acetylamino-ethyl)-amide] came in with a fold induction at 5 µM of 25.9. Turning to `COC(C)(C)CNC(=O)c1ccc2c(c1)nc(Nc1nc3ccc(C(F)(F)F)cc3s1)n2C` [Example 208, 1-Methyl-2-(6-trifluoromethyl-benzothiazol-2-ylamino)-1H-benzoimidazole-5-carboxylic acid (2-methoxy-2-methyl-propyl)-amide], the fold induction at 3 µM was 26.5. In turn, `CCn1c(Nc2nc3ccc(C(F)(F)F)cc3s2)nc2cc(C(=O)NCCOC)ccc21` [Example 182, 1-Ethyl-2-(6-trifluoromethyl-benzothiazol-2-ylamino)-1H-benzoimidazole-5-carboxylic acid (2-methoxy-ethyl)-amide] came in with a fold induction at 5 µM of 13. Regarding `C[C@@H](NC(=O)c1ccc2c(c1)nc(Nc1nc3ccc(C(F)(F)F)cc3s1)n2C)C(=O)N1CCOCC1` [Example 472, 1-Methyl-2-(6-trifluoromethyl-benzothiazol-2-ylamino)-1H-benzoimidazole-5-carboxylic acid ((R)-1-methyl-2-morpholin-4-yl-2-oxo-ethyl)-amide], the fold induction at 3 µM was 23. For the compound `Cn1c(Nc2nc3ccc(OC(F)(F)F)cc3s2)nc2ccc(C#N)cc21` [Example 195, 1-Methyl-2-(6-trifluoromethoxy-benzothiazol-2-ylamino)-1H-benzoimidazole-6-carbonitrile], the fold induction at 5 µM came out at 4.4. Still for that read-out and setting: in the case of `CNC(=O)c1ccc2c(c1)nc(Nc1nc3ccc(OC(F)(F)F)cc3s1)n2CCF` [Example 170, 1-(2-Fluoro-ethyl)-2-(6-trifluoromethoxy-benzothiazol-2-ylamino)-1H-benzoimidazole-5-carboxylic acid methylamide] it was 23; in that of `Cn1c(Nc2nc3ccc(C(F)(F)F)cc3s2)nc2cc(C(=O)NCCOCCF)ccc21` [Example 257, 1-Methyl-2-(6-trifluoromethyl-benzothiazol-2-ylamino)-1H-benzoimidazole-5-carboxylic acid [2-(2-fluoro-ethoxy)-ethyl]-amide], 21.9; in that of `Cn1c(Nc2nc3ccc(OC(F)(F)F)cc3s2)nc2cc(C(=O)NCCOCCO)c(F)cc21` [Example 237, 6-Fluoro-1-methyl-2-(6-trifluoromethoxy-benzothiazol-2-ylamino)-1H-benzoimidazole-5-carboxylic acid [2-(2-hydroxy-ethoxy)-ethyl]-amide], 30.6. With `Cn1c(Nc2nc3ccc(OC(F)(F)F)cc3s2)nc2cc(C(=O)NCCN3CCCC3=O)ccc21` [Example 329, 1-Methyl-2-(6-trifluoromethoxy-benzothiazol-2-ylamino)-1H-benzoimidazole-5-carboxylic acid [2-(2-oxo-pyrrolidin-1-yl)-ethyl]-amide], the fold induction at 5 µM was 52.2. Same read-out and setting: in the case of `COCCn1c(Nc2nc3ccc(Cl)cc3s2)nc2cc(C(=O)NCC(=O)N3CCN(C)CC3)ccc21` [Example 428, 2-(6-Chloro-benzothiazol-2-ylamino)-1-(2-methoxy-ethyl)-1H-benzoimidazole-5-carboxylic acid [2-(4-methyl-piperazin-1-yl)-2-oxo-ethyl]-amide] it was 24.4. The same measure, in the same setting: as for `Cn1c(Nc2nc3ccc(OC(F)(F)F)cc3s2)nc2cc(C(=O)NCC(C)(C)CO)ccc21` [Example 217, 1-Methyl-2-(6-trifluoromethoxy-benzothiazol-2-ylamino)-1H-benzoimidazole-5-carboxylic acid (3-hydroxy-2,2-dimethyl-propyl)-amide], the figure is 20.7; as for `Cn1c(Nc2nc3ccc(Cl)cc3s2)nc2cc(C(=O)NCC(=O)N3CCS(=O)(=O)CC3)ccc21` [Example 424, 2-(6-Chloro-benzothiazol-2-ylamino)-1-methyl-1H-benzoimidazole-5-carboxylic acid [2-(1,1-dioxo-thiomorpholin-4-yl)-2-oxo-ethyl]-amide], 24.9; as for `CCOC(C)CNC(=O)c1ccc2c(c1)nc(Nc1nc3ccc(OC(F)(F)F)cc3s1)n2C` (stereo not shown) [Example 54, 1-Methyl-2-(6-trifluoromethoxy-benzothiazol-2-ylamino)-1H-benzoimidazole-5-carboxylic acid (2-ethoxy-propyl)-amide], 18.5. Still for that read-out and setting: as for `COCCNC(=O)c1cnc2c(c1)nc(Nc1nc3ccc(OC(F)(F)F)cc3s1)n2C` [Example 73, 3-Methyl-2-(6-trifluoromethoxy-benzothiazol-2-ylamino)-3H-imidazo[4,5-b]pyridine-6-carboxylic acid (2-methoxy-ethyl)-amide], the figure is 20.6.

On to `Cn1c(Nc2nc3ccc(Cl)cc3s2)nc2cc(C(=O)NCCNCCF)ccc21` [Example 279, 2-(6-Chloro-benzothiazol-2-ylamino)-1-methyl-1H-benzoimidazole-5-carboxylic acid [2-(2-fluoro-ethylamino)-ethyl]-amide hydrochloride], for which the fold induction at 5 µM turned out to be 89.2.

`CN1CCN(CCNC(=O)c2ccc3c(c2)nc(Nc2nc4ccc(Cl)cc4s2)n3C)CC1` [Example 338, 2-(6-Chloro-benzothiazol-2-ylamino)-1-methyl-1H-benzoimidazole-5-carboxylic acid [2-(4-methyl-piperazin-1-yl)-ethyl]-amide] showed a fold induction at 3 µM of 13.6. On to `CC(O)CCNC(=O)c1ccc2c(c1)nc(Nc1nc3ccc(C(F)(F)F)cc3s1)n2C` (stereo not shown) [Example 216, 1-Methyl-2-(6-trifluoromethyl-benzothiazol-2-ylamino)-1H-benzoimidazole-5-carboxylic acid (3-hydroxy-butyl)-amide], for which the fold induction at 3 µM amounted to 31.6.

A word on the fold induction: it is the ratio of treated to control signal. Low values mean a weak induction, high ones a strong induction.

Source of the values: patent US8759535B2, “Substituted fused imidazole derivatives, pharmaceutical compositions, and methods of use thereof” (High Point Pharmaceuticals, LLC, priority 2010, dated 2014).
